Assay results published in patent US20220205982A1 (CHILDREN'S HOSPITAL MEDICAL CENTER, priority 2019, published 2022).
Where “and” joins values, the source holds several entries; their conditions need not be identical. Identical values can stand only once. Like-named read-outs stand apart in the source and are kept apart here.

Tests used:
[1] = tested on: plasma proteins; details: cited from earlier work
[2] = Melphalan test dose and full dose pharmacokinetics in patients undergoing RIC allogeneic HCT for non-malignant disorders (Bayesian analysis of plasma concentrations); format: in vivo, human; details: for AUC: human, plasma, intravenous; for Distribution of AUC (h * μg/mL): 3.5-≤6.5 / Distribution of AUC (h * μg/mL): <3.5 / Distribution of AUC (h * μg/mL): >6.5: share of transplants
Protocol: Patients undergoing allogeneic HCT for non-malignant disorders with a uniform RIC regimen that included alemtuzumab, fludarabine and melphalan were enrolled in this study. Full standard dose of melphalan was set as follows: • 140 mg/m^2 in patients having a body weight >10 kg, • 4.7 mg/kg in patients having a body weight <10 kg, and • 70 mg/m^2 in one patient with a radio sensitivity disorder.
The patients were given a test dose of melphalan (10% of the standard full dose) prior to start of their preparative regimen. Test dose of 10% of the full standard dose was determined to be the lowest dose level that would be measurable for a sufficiently long time interval (0-4h) to allow reliable AUC estimation. Accordingly, the test doses used in this study were 14 mg/m^2, 7 mg/m^2 and 0.47 mg/kg for patients having the standard full doses of 140 mg/m^2, 70 mg/m^2 and 4.7 mg/kg, respectively.
Blood samples were obtained for PK measurement after the administration of test dose and the full standard dose of melphalan. A total of 10 blood samples were obtained around each dose of melphalan: at baseline (5-10 min prior to start of the melphalan infusion of) and then approximately at 5 min, 15 min, 30 min, 45 min, 60 min, 2 hour, 2.5, 4, and 6 hours after the end of the melphalan infusion. Samples were collected on ice and transported to the institution's mass spectrometry laboratory for instant analysis by PS-MS/MS and conventional LC-MS/MS. Patient data collected for analysis included baseline organ function, presence of oral and gastrointestinal mucositis, renal and liver dysfunction including VOD, initial donor chimerism, graft rejection, and acute and chronic GVHD (aGVHD and cGVHD). The Common Terminology Criteria for Adverse Events (CTCAE) version 4.0 was used to evaluate adverse events. Acute and chronic GVHD were assessed by standardized published criteria. See, e.g., Glucksberg H, et al. Transplantation. 1974; 18:295-304 and Filipovich A H, et al. Biol Blood Marrow Transplant. 2005; 11:945-956. Interim analyses were completed after enrollment of 5 patients and 10 patients respectively to validate data following 25% and 50% of intended total patient enrollment. The AUC range that led to full donor chimerism without excess toxicity in majority of patients was selected to be the desired target AUC for full dose adjustment. In patients with baseline impaired organ function, personalized full dose melphalan was adjusted to limit toxicity if test dose PK predicted standard full dose AUC was higher than the desired target AUC range.
Melphalan levels were measured by validated PS-MS/MS and LC-MS\MS methods (Mirkou A, etc., J Chromatogr B Analyt Technol Biomed Life Sci. 2009; 877:3089-3096). For the PS-MS/MS method, all samples were analyzed using an automated Paper Spray ion source (Prosolia, Inc. Indianapolis, Ind.) interfaced with a TSQ Quantum Ultra mass spectrometer (Thermo Scientific, San Jose, Calif.) operated in selected reaction monitoring (SRM) mode. XCalibur software was used to control the MS and to process data. Specific precursor/product ions were simultaneously monitored for melphalan and its stable isotopically-labelled internal standard (D8-melphalan) by collision-induced dissociation (CID). Blood samples were prepared by spiking known amounts of melphalan standards and the internal standard into drug free human blood to establish a calibration curve and quality control samples. A small amount of patient's blood […] equilibrated with D8-melphalan solution was deposited on the Paper Spray cartridge and dried. A small volume of solvent optimized to efficiently extract the drug was applied to the paper. A stepwise high voltage (3-5 kV) was then applied inducing an electrospray ionization at the tip of the paper; the solvent evaporates from the droplets generating gas phase ions of the analyte, which then can be detected by a mass spectrometer. […]

[3] = a 4-month infant, normal renal and liver function for age
[4] = median and range, 16 patients with normal organ function
[5] = median and range, 17 patients who received standard full dose
[6] = median and range, patients <10 kg, normal organ function, n=5, dose 0.47 mg/kg, 0.47 mg/kg
[7] = median and range, patients >10 kg, normal organ function, n=11, dose 14 mg/m^2
[8] = median and range, six patients (7 transplants) with impaired organ function, adjusted full dose
[9] = median, PK-adjusted full dose, N = 6 (7)

N[C@@H](Cc1ccc(N(CCCl)CCCl)cc1)C(=O)O [melphalan, 4-[Bis(2-chloroethyl)amino]-L-phenylalanine]
interactions with immunoglobulins [1]: negligible | melphalan (covalently) irreversibly bound to plasma proteins ([1]; plasma): Approximately 30% | test dose clearance [2, 3]: 15.7 L/h/70 kg | test dose predicted full dose AUC [2, 3]: 11.1 µg·h/mL | AUC ([2]; 0.44 mg/kg, sixth patient, initial HCT, full dose 0.44 mg/kg (9.3% of standard dose), read-out: AUC achieved): 1100 ng·h/mL | AUC ([2]; 0.47 mg/kg, median and range, patients <10 kg, normal organ function, n=5, dose 0.47 mg/kg, read-out: test dose AUC): 560 ng·h/mL | AUC ([2]; 1.2 mg/kg, sixth patient, second HCT, full dose 1.2 mg/kg (25.5% of standard dose), read-out: actual observed AUC): 3900 ng·h/mL | AUC ([2]; 4.7 mg/kg, infant who developed VOD, read-out: full dose melphalan AUC): 6900 ng·h/mL | AUC ([2]; 4.7 mg/kg, median and range, patients <10 kg, standard dose 4.7 mg/kg, n=6, read-out: full dose AUC): 4800 ng·h/mL | AUC ([2]; 14 mg/m2, median and range, patients >10 kg, normal organ function, n=11, dose 14 mg/m^2, read-out: test dose AUC): 520 ng·h/mL | AUC ([2]; 70 mg/m^2, patient with VOD and diffuse alveolar hemorrhage, ataxia telangiectasia, read-out: full dose melphalan AUC): 5000 ng·h/mL | AUC ([2]; 140 mg/m2, median and range, patients >10 kg, standard dose 140 mg/m2, n=11, read-out: full dose AUC): 5500 ng·h/mL | AUC ([2]; 140 mg/m2, patient with grade 4 mucositis and gastrointestinal bleeding, read-out: full dose AUC (highest melphalan exposure)): 9500 ng·h/mL | AUC ([2]; five patients, adjusted full dose 29% to 70% of standard dose, read-out: actual observed AUC with the adjusted dose): 3600 to 5400 ng·h/mL | AUC ([2]; median and range, 16 patients with normal organ function, read-out: test dose AUC): 550 ng·h/mL | AUC ([2]; median and range, 17 patients who received standard full dose, read-out: full dose AUC): 5500 ng·h/mL | AUC ([2]; median and range, six patients (7 transplants) with impaired organ function, adjusted full dose, read-out: test dose AUC): 840 ng·h/mL | AUC ([2]; median in the 12/17 (70.6%) patients with AUC between 3.5 and 6.5, read-out: full dose AUC): 5200 ng·h/mL | AUC ([2]; median, PK-adjusted full dose, N = 6 (7), read-out: Full dose AUC): 3900 ng·h/mL | AUC ([2]; median, PK-adjusted full dose, N = 6 (7), read-out: Test dose AUC): 840 ng·h/mL | AUC ([2]; median, Standard full dose, N = 16 (16), read-out: Test dose AUC): 550 ng·h/mL | AUC ([2]; median, Standard full dose, N = 17 (17), read-out: Full dose AUC): 5500 ng·h/mL | AUC ([2]; median, Total, N = 22 (23), read-out: Test dose AUC): 590 ng·h/mL | AUC ([2]; median, Total, N = 23 (24), read-out: Full dose AUC): 5000 ng·h/mL | AUC ([2]; patient with normal organ function who developed grade 4 gastrointestinal mucositis, read-out: full dose AUC): 9500 ng·h/mL | AUC ([2]; patients with impaired organ function, adjusted full dose, read-out: observed AUC based on the test dose PK guided adjustment): 3900 ± 1400 ng·h/mL | AUC ([2]; full dose melphalan, RIC HCT for non-malignant disorders, read-out: AUC range well tolerated without excess toxicity and sufficient to facilitate engraftment with full donor chimerism): 3500 to 6500 ng·h/mL | FCLstd (body weight normalized clearance by allometric scaling) ([2]; individual patients, full dose): 27.4 L/h/70 kg and 46.9 L/h/70 kg and 43.1 L/h/70 kg and 66.8 L/h/70 kg and 30.2 L/h/70 kg and 59.4 L/h/70 kg and 62.8 L/h/70 kg and 38.9 L/h/70 kg and 18.6 L/h/70 kg and 38.3 L/h/70 kg and 42.7 L/h/70 kg and 18.8 L/h/70 kg and 33.9 L/h/70 kg and 38.0 L/h/70 kg and 29.4 L/h/70 kg and 15.1 L/h/70 kg and 25.0 L/h/70 kg and 12.3 L/h/70 kg and 43.5 L/h/70 kg and 36.9 L/h/70 kg and 19.7 L/h/70 kg and 50.6 L/h/70 kg and 34.5 L/h/70 kg | Predicted FAUC (test dose PK evaluation) ([2]; individual patients, full dose AUC predicted from test dose PK): 2.9 mg · h/L and 6.5 mg · h/L and 5.9 mg · h/L and 5.1 mg · h/L and 5.2 mg · h/L (3×) and 5.7 mg · h/L (2×) and 14.0 mg · h/L and 14.5 mg · h/L and 7.2 mg · h/L and 5.6 mg · h/L and 4.8 mg · h/L and 6.1 mg · h/L and 5.5 mg · h/L and 11.6 mg · h/L and 11.1 mg · h/L and 16.8 mg · h/L and 7.1 mg · h/L and 13.8 mg · h/L and 4.4 mg · h/L and 7.4 mg · h/L | TCLstd (test dose body weight normalized clearance by allometric scaling) ([2]; individual patients, test dose): 47.3 L/h/70 kg and 44.0 L/h/70 kg and 38.8 L/h/70 kg and 56.2 L/h/70 kg and 52.2 L/h/70 kg and 47.8 L/h/70 kg and 49.5 L/h/70 kg and 12.1 L/h/70 kg and 45.2 L/h/70 kg and 18.5 L/h/70 kg and 33.1 L/h/70 kg and 27.5 L/h/70 kg and 33.9 L/h/70 kg and 27.0 L/h/70 kg and 32.3 L/h/70 kg and 13.6 L/h/70 kg and 15.7 L/h/70 kg and 11.3 L/h/70 kg and 35.9 L/h/70 kg and 49.6 L/h/70 kg and 19.2 L/h/70 kg and 67.1 L/h/70 kg and 32.8 L/h/70 kg | predicted AUC for standard full dose melphalan [2, 4]: 2.9 to 11.1 µg·h/mL and 5.5 µg·h/mL | test dose AUC [2, 4]: 0.29 to 1.1 µg·h/mL | full dose AUC [2, 5]: 3.0 to 9.5 µg·h/mL | full dose clearance [2, 5]: 38.3 L/h/70 kg and 25.0-66.8 L/h/70 kg | test dose AUC [2, 6]: 0.48 to 1.11 µg·h/mL | test dose clearance [2, 6]: 27.6 L/hr./70 kg and 15.7-34.0 L/hr./70 kg | full dose AUC ([2]; median and range, patients <10 kg, standard dose 4.7 mg/kg, n=6, 4.7 mg/kg): 3.0 to 6.9 µg·h/mL | test dose AUC [2, 7]: 0.29 to 0.72 µg·h/mL | test dose clearance [2, 7]: 47.8 L/h/70 kg and 33.1-67.2 L/h/70 kg | full dose AUC ([2]; median and range, patients >10 kg, standard dose 140 mg/m2, n=11): 4.1 to 9.5 µg·h/mL | test dose PK predicted AUC for standard full dose ([2]; median and range, six patients (7 transplants) with impaired organ function): 13.8 µg·h/mL and 11.1 to 16.4 µg·h/mL | test dose AUC [2, 8]: 0.7 to 1.45 µg·h/mL | test dose clearance [2, 8]: 18.5 L/hr./70 kg and 11.3-35.9 L/hr./70 kg | Test dose PK predicted full close AUC ([2]; median, PK-adjusted full dose): 13.8 µg·h/mL | Full dose CL [2, 9]: 18.8 L/h/70 kg | Test dose CL [2, 9]: 45.2 L/h/70 kg | Test dose PK predicted full close AUC ([2]; median, Standard full dose): 5.7 µg·h/mL | Test dose CL ([2]; median, Standard full dose, N = 16 (16)): 18.5 L/h/70 kg | Full dose CL ([2]; median, Standard full dose, N = 17 (17)): 38.3 L/h/70 kg | Test dose PK predicted full close AUC ([2]; median, Total): 5.9 µg·h/mL | Test dose CL ([2]; median, Total, N = 22 (23)): 33.9 L/h/70 kg | Full dose CL ([2]; median, Total, N = 23 (24)): 37.4 L/h/70 kg | full dose AUC if given standard full dose ([2]; patients with impaired organ function, predicted from test dose PK): 11.0 ± 3.6 µg·h/mL | Distribution of AUC (h * μg/mL): 3.5-≤6.5 ([2]; PK-adjusted full dose): 85.7% | Distribution of AUC (h * μg/mL): <3.5 ([2]; PK-adjusted full dose): 14.3% | Distribution of AUC (h * μg/mL): >6.5 ([2]; PK-adjusted full dose): 0.0% | Distribution of AUC (h * μg/mL): 3.5-≤6.5 ([2]; Standard full dose): 70.6% | Distribution of AUC (h * μg/mL): <3.5 ([2]; Standard full dose): 5.9% | Distribution of AUC (h * μg/mL): >6.5 ([2]; Standard full dose): 23.5% | Distribution of AUC (h * μg/mL): 3.5-≤6.5 ([2]; Total): 75.0% | Distribution of AUC (h * μg/mL): <3.5 ([2]; Total): 8.3% | Distribution of AUC (h * μg/mL): >6.5 ([2]; Total): 16.7%
